Results as given in publication PMC7883216 (Peptides, 2021).
Like-named read-outs stand apart in the source and are kept apart here.

Assays:
[1] = Pharmacokinetics of exogenous mouse GIP; assay type: in vivo, female C57Bl/6Jrj mice; conditions: for peak intact GIP concentration as % of peak total GIP concentration: in-house RIAs; for increase of iAUC of intact GIP upon co-administration of Val-Pyr: P < 0.0001; for Clearance, corrected for body weight / Apparent volume of distribution corrected for body weight: IV 25 nmol/kg BW, mean ± SE, n = 6-9; for Clearance, corrected for body weight: CL = k*Vd
[2] = in humans; cited from earlier work
[3] = anaesthetized rats; cited from earlier work
[4] = female, C57Bl/6Jrj, mouse, plasma, iv, 25 nmol/kg BW

Row | Compound | peak intact GIP concentration as % of peak total GIP concentration ([1]; IP injection 25 nmol/kg BW, with Val-Pyr) [%] | peak intact GIP concentration as % of peak total GIP concentration ([1]; IP injection 25 nmol/kg BW, without Val-Pyr) [%] | increase of iAUC of intact GIP upon co-administration of Val-Pyr ([1]; IP injection 25 nmol/kg BW, Fig. 1F) [fold] | Clearance, corrected for body weight ([1]; Val-Pyr co-administration) [µL/min/g] | Apparent volume of distribution corrected for body weight ([1]; Val-Pyr co-administration) [mL/g] | Clearance, corrected for body weight ([1]; placebo (no Val-Pyr)) [µL/min/g] | Apparent volume of distribution corrected for body weight ([1]; placebo (no Val-Pyr), Vd = total dose/C0) [mL/g] | peak intact GIP concentration as % of peak total GIP concentration ([1]; IV injection 25 nmol/kg BW, with Val-Pyr) [%] | peak intact GIP concentration as % of peak total GIP concentration ([1]; IV injection 25 nmol/kg BW, without Val-Pyr, mean) [%] | increase of iAUC of intact GIP upon co-administration of Val-Pyr ([1]; IV injection 25 nmol/kg BW, Fig. 1B) [fold] | peak intact GIP concentration as % of peak total GIP concentration ([1]; SC injection 25 nmol/kg BW, with Val-Pyr) [%] | peak intact GIP concentration as % of peak total GIP concentration ([1]; SC injection 25 nmol/kg BW, without Val-Pyr) [%] | increase of iAUC of intact GIP upon co-administration of Val-Pyr ([1]; SC injection 25 nmol/kg BW, Fig. 1D) [fold] | half-life [1, 4] [min] | tissue uptake dose [1, 4] [%ID] | tissue uptake dose ([1]; female, C57Bl/6Jrj, mouse, plasma, sc, 25 nmol/kg BW) [%ID] | intact GIP levels as % of total GIP plasma concentrations ([1]; following SC and IP GIP administration without DPP-4 inhibitor) | plasma half-life [2] | plasma half-life [3]
1 | CC[C@H](C)[C@H](NC(=O)[C@H](CO)NC(=O)[C@H](Cc1ccc(O)cc1)NC(=O)[C@H](CC(=O)O)NC(=O)[C@H](CO)NC(=O)[C@@H](NC(=O)[C@H](Cc1ccccc1)NC(=O)[C@@H](NC(=O)CNC(=O)[C@H](CCC(=O)O)NC(=O)[C@H](C)NC(=O)[C@@H](N)Cc1ccc(O)cc1)[C@@H](C)O)[C@@H](C)CC)C(=O)N[C@@H](C)C(=O)N[C@@H](CCSC)C(=O)N[C@@H](CC(=O)O)C(=O)N[C@@H](CCCCN)C(=O)N[C@H](C(=O)N[C@@H](CCCNC(=N)N)C(=O)N[C@@H](CCC(N)=O)C(=O)N[C@@H](CCC(N)=O)C(=O)N[C@@H](CC(=O)O)C(=O)N[C@@H](Cc1ccccc1)C(=O)N[C@H](C(=O)N[C@@H](CC(N)=O)C(=O)N[C@@H](Cc1c[nH]c2ccccc12)C(=O)N[C@@H](CC(C)C)C(=O)N[C@@H](CC(C)C)C(=O)N[C@@H](C)C(=O)N[C@@H](CCC(N)=O)C(=O)N[C@@H](CCCNC(=N)N)C(=O)NCC(=O)N[C@@H](CCCCN)C(=O)N[C@@H](CCCCN)C(=O)N[C@@H](CO)C(=O)N[C@@H](CC(=O)O)C(=O)N[C@@H](Cc1c[nH]c2ccccc12)C(=O)N[C@@H](CCCCN)C(=O)N[C@@H](Cc1c[nH]cn1)C(=O)N[C@@H](CC(N)=O)C(=O)N[C@H](C(=O)N[C@H](C(=O)N[C@@H](CCC(N)=O)C(=O)O)[C@@H](C)O)[C@@H](C)CC)C(C)C)[C@@H](C)CC [GIP(1–42)] | 82 | 16 | 7.8 | 45 ± 4 | 0.46 ± 0.03 | 207 ± 16 | 0.34 ± 0.1 | 110 | 41 | 5.4 | 82 | 14 | 8.1 | 1.5 | 13 ± 1 | 10 ± 1 | approximately 15% | approximately 7 min | approximately 2 min
2 | human GIP(1–42): human GIP(1–42), half-life in humans quoted from ref 11 |  |  |  |  |  |  |  |  |  |  |  |  |  |  |  |  |  | approximately 7 min | 
